Measured values: US10072006B2 (MUTABILIS, priority 2015, dated 2018)
≈ marks a conversion by molar mass, not a printed value. Read-outs that look alike come from different tables or passages of the source.

Key:
[1] = target: T1, OXA-48 (Klebsiella pneumoniae, UniProt Q6XEC0); assay: β-lactamase inhibitory activity, determination of IC50 (nitrocefin hydrolysis); type: biochemical
T1 construct: made in house; host or cells: E. coli

[2] = target: T2, SHV-1 (Klebsiella pneumoniae, UniProt P0AD64); assay: as above; type: biochemical
T2 construct: made in house; host or cells: E. coli

[3] = target: T3, CTX-M-15 (Escherichia coli, UniProt Q9EXV5); assay: as above; type: biochemical
T3 construct: made in house; host or cells: E. coli

[4] = target: T4, OXA-11 (Pseudomonas aeruginosa, UniProt Q06778); assay: as above; type: biochemical
T4 construct: made in house; host or cells: E. coli

[5] = target: T5, OXA-1 (Escherichia coli, UniProt P13661); assay: as above; type: biochemical
T5 construct: made in house; host or cells: E. coli

[6] = target: T6, TEM-1 (Escherichia coli, UniProt P62593); assay: as above; type: biochemical; details: class (A), 30 min pre-incubation
T6 construct: made in house; host or cells: E. coli

[7] = test system: E. coli 190317 (TEM-1, SHV-12, CTX-M-15, OXA-1); assay: microbe, parasite or virus in culture; type: cell-based; details: for MIC: Escherichia coli, 18 h, read-out: MIC compounds of the invention alone; for MIC, combination of CAZ and compounds of the invention: MIC of ceftazidime with compound fixed at 4 μg/mL, strain 190317 (E. coli)
Description: (§1) Briefly, compounds alone according to the invention were prepared in DMSO and spotted (2 μL each) on sterile polystyrene plates (Corning, 3788). […] Microplates were incubated for 16-20 h at 35° C. in ambient air. The MIC of the compounds was defined as the lowest concentration of said compounds that prevented bacterial growth as read by visual inspection.

[8] = target: AmpC (P99) (Enterobacter cloacae, UniProt P05364); assay: biochemical
[9] = test system: P. aeruginosa UFR35 (OXA-23); assay: MIC of compounds and synergy with ceftazidime (broth microdilution); type: cell-based; details: for MIC, combination of CAZ and compounds of the invention: MIC of ceftazidime with compound fixed at 4 μg/mL, strain UFR35 (P. aeruginosa)
Description: as §1

[10] = test system: E. cloacae P99 (Derepressed ampC); assay: as above; type: cell-based; details: for MIC: Enterobacter cloacae, 18 h, read-out: MIC compounds of the invention alone; for MIC, combination of CAZ and compounds of the invention: MIC of ceftazidime with compound fixed at 4 μg/mL
Description: as §1

[11] = test system: K. pneumoniae 6299 (TEM-1, SHV-11, OXA-163); assay: as above; type: cell-based; details: for MIC: Klebsiella pneumoniae, 18 h, read-out: MIC compounds of the invention alone; for MIC, combination of CAZ and compounds of the invention: MIC of ceftazidime with compound fixed at 4 μg/mL
Description: as §1

[12] = test system: P. aeruginosa UFR59 (IMP-29); assay: as above; type: cell-based; details: for MIC, combination of CAZ and compounds of the invention: MIC of ceftazidime with compound fixed at 4 μg/mL, strain UFR59 (P. aeruginosa)
Description: as §1

[13] = test system: P. aeruginosa UFR90 (Derepressed ampC, OprD-); assay: as above; type: cell-based; details: for MIC, combination of CAZ and compounds of the invention: MIC of ceftazidime with compound fixed at 4 μg/mL, strain UFR90 (P. aeruginosa)
Description: as §1

[14] = test system: P. aeruginosa CIP107051 (TEM-24); assay: as above; type: cell-based; details: for MIC, combination of CAZ and compounds of the invention: MIC of ceftazidime with compound fixed at 4 μg/mL; for MIC: Pseudomonas aeruginosa, read-out: MIC compounds of the invention alone
Description: as §1

[15] = test system: P. aeruginosa UFR48 (VIM-2); assay: as above; type: cell-based; details: for MIC, combination of CAZ and compounds of the invention: MIC of ceftazidime with compound fixed at 4 μg/mL, strain UFR48 (P. aeruginosa)
Description: as §1

[16] = test system: E. coli RGN238 (OXA-1); assay: as above; type: cell-based; details: Escherichia coli, 18 h, read-out: MIC compounds of the invention alone
Description: as §1

[17] = test system: P. aeruginosa CIP105250 (OXA-15); assay: as above; type: cell-based; details: for MIC, combination of CAZ and compounds of the invention: MIC of ceftazidime with compound fixed at 4 μg/mL; for MIC: Pseudomonas aeruginosa, read-out: MIC compounds of the invention alone
Description: as §1

[18] = test system: E. coli 131119 (TEM-1, OXA-48); assay: as above; type: cell-based; details: Escherichia coli, 18 h, read-out: MIC compounds of the invention alone
Description: as §1

[19] = test system: P. aeruginosa UFR47 (VIM-1); assay: as above; type: cell-based; details: for MIC, combination of CAZ and compounds of the invention: MIC of ceftazidime with compound fixed at 4 μg/mL, strain UFR47 (P. aeruginosa)
Description: as §1

[20] = test system: P. aeruginosa UFR93 (Derepressed ampC, OprD-, MexAB+, MexXY+); assay: as above; type: cell-based; details: for MIC, combination of CAZ and compounds of the invention: MIC of ceftazidime with compound fixed at 4 μg/mL, strain UFR93 (P. aeruginosa)
Description: as §1

[21] = test system: P. aeruginosa UFR92 (Derepressed ampC, OprD-); assay: as above; type: cell-based; details: for MIC, combination of CAZ and compounds of the invention: MIC of ceftazidime with compound fixed at 4 μg/mL, strain UFR92 (P. aeruginosa)
Description: as §1

[22] = test system: K. pneumoniae BAA-1898 (TEM-1, SHV-11, SHV-12, KPC-2); assay: as above; type: cell-based; details: for MIC: Klebsiella pneumoniae; for MIC, combination of CAZ and compounds of the invention: MIC of ceftazidime with compound fixed at 4 μg/mL
Description: as §1

[23] = target: T7, OXA-15 (Pseudomonas aeruginosa, UniProt Q51574); assay: β-lactamase inhibitory activity, determination of IC50 (nitrocefin hydrolysis); type: biochemical
T7 construct: made in house; host or cells: E. coli

[24] = target: AmpC (PAE) (Pseudomonas aeruginosa, UniProt P24735); assay: biochemical
[25] = target: T8, KPC-2 (Klebsiella pneumoniae, UniProt Q9F663); assay: β-lactamase inhibitory activity, determination of IC50 (nitrocefin hydrolysis); type: biochemical
T8 construct: made in house; host or cells: E. coli

[26] = Pseudomonas aeruginosa, 18 h, read-out: MIC compounds of the invention alone
[27] = strain CIP107051 (P. aeruginosa)
[28] = strain CIP105250 (P. aeruginosa)
[29] = strain BAA-1898 (K. pneumoniae)

SMILES | IC50 [1] | IC50 [2] | IC50 [3] | IC50 [4] | IC50 [5] | IC50 [6] | MIC [7] | MIC, combination of CAZ and compounds of the invention [7] | IC50 [8] | MIC, combination of CAZ and compounds of the invention [9] | MIC, combination of CAZ and compounds of the invention ([10]; strain P99 (E. cloacae)) | MIC, combination of CAZ and compounds of the invention ([11]; strain 6299 (K. pneumoniae)) | MIC, combination of CAZ and compounds of the invention [12] | MIC, combination of CAZ and compounds of the invention [13] | MIC, combination of CAZ and compounds of the invention [14, 27] | MIC, combination of CAZ and compounds of the invention [15] | MIC, combination of CAZ and compounds of the invention [17, 28] | MIC, combination of CAZ and compounds of the invention [19] | MIC, combination of CAZ and compounds of the invention [20] | MIC, combination of CAZ and compounds of the invention [21] | other results
NC[C@@H]1C=C(c2cnco2)[C@@H]2CN1C(=O)N2OC(F)(F)C(=O)O (relative stereo) [Example 3, lithium and 2,2,2-trifluoroacetate [trans-2-(azaniumylmethyl)-4-oxazol-5-yl-7-oxo-1,6-diazabicyclo[3.2.1]oct-3-en-6-yl]oxy]-2,2-difluoro-acetate] | 5.7 nM | 4.6 nM | 2 nM | 48 nM | 17 nM | 3 nM | 0.25 µg/mL (≈ 0.757 µM) | <0.125 µg/mL | 7.4 nM | <0.25 µg/mL | <0.125 µg/mL | 1 µg/mL | 2 µg/mL | <0.25 µg/mL | ≤0.25 µg/mL | 16 µg/mL | 8 µg/mL | <0.25 µg/mL | 0.5 µg/mL | ≤0.25 µg/mL | MIC [9, 26]: 2 µg/mL; MIC [10]: 0.063 µg/mL; MIC [11]: > 32 µg/mL; MIC [12, 26]: 16 µg/mL; MIC [13, 26]: 1 µg/mL; MIC ([14]; CIP107051, 18 h): 16 µg/mL; MIC [15, 26]: 8 µg/mL; MIC [16]: > 32 µg/mL; MIC ([17]; CIP105250, 18 h): > 32 µg/mL; MIC [18]: 0.5 µg/mL; MIC [19, 26]: 4 µg/mL; MIC [20, 26]: 16 µg/mL; MIC [21, 26]: 8 µg/mL; MIC ([22]; BAA1898, read-out: MIC compounds of the invention alone): > 32 µg/mL; MIC, combination of CAZ and compounds of the invention [22, 29]: 1 µg/mL; IC50 [23]: 1.6 nM; IC50 [24]: 220 nM; IC50 [25]: 33 nM
Cn1cc(C2=C[C@@H](CN)N3C[C@@H]2N(OS(=O)(=O)O)C3=O)cnc1=O (relative stereo) [Example 6] | 840 nM | 340 nM | 510 nM | 1600 nM | 1200 nM | 280 nM | 0.125 µg/mL (≈ 0.35 µM) | <0.125 µg/mL | 6400 nM | <0.25 µg/mL | ≤0.125 µg/mL | 4 µg/mL | <0.25 µg/mL | <0.25 µg/mL | 32 µg/mL | <0.25 µg/mL | 64 µg/mL | <0.25 µg/mL | <0.25 µg/mL | <0.25 µg/mL | MIC ([10]; strain P99 (E. cloacae)): 0.125 µg/mL; MIC ([11]; strain 6299 (K. pneumoniae)): > 32 µg/mL; MIC ([14]; 18 h, strain CIP107051 (P. aeruginosa)): 16 µg/mL; MIC ([16]; strain RGN238 (E. coli)): > 32 µg/mL; MIC ([17]; 18 h, strain CIP105250 (P. aeruginosa)): 32 µg/mL; MIC ([18]; strain 131119 (E. coli)): > 32 µg/mL; MIC ([22]; BAA1898, strain BAA-1898 (K. pneumoniae), read-out: MIC compounds of the invention alone): > 32 µg/mL; MIC, combination of CAZ and compounds of the invention [22, 29]: 4 µg/mL; IC50 [23]: 68 nM; IC50 [24]: 38000 nM; IC50 [25]: 5100 nM
